These are literature values, as cited in patent publication US20070259016A1, “Method of treating crops with submicron chlorothalonil” (priority 2006, published 2007).

The conditions of data set [1]: at 170 C.
For data set [2] the following is noted: acid and neutral aqueous preparations.

SMILES strings stand for the structures.

For the compound `N#Cc1c(Cl)c(Cl)c(Cl)c(C#N)c1Cl` [chlorothalonil, 2,4,5,6-tetrachloro-1,3-dicyanobenzene], in data set [1], the volatility was 9.2 mmHg. Moreover, the “solubility in acetone and xylene” value (acetone and xylene) is “slightly soluble”. Besides, the solubility in water (water) is on record as 0.6-1.2 ppm. The “stability in aqueous preparations” value in data set [2] was “relatively stable”.
